{"source": "patent US9422299B2", "about": "“Substituted [1,2,4]triazolo[4,3-a]pyrazines as selective NK-3 receptor antagonists” (EUROSCREEN SA, priority 2013, dated 2016)", "key": {"human NK-1 receptor": {"biological_target": "human NK-1 receptor (Homo sapiens (Human), UniProt P25103)", "sequence (P25103 whole entry)": "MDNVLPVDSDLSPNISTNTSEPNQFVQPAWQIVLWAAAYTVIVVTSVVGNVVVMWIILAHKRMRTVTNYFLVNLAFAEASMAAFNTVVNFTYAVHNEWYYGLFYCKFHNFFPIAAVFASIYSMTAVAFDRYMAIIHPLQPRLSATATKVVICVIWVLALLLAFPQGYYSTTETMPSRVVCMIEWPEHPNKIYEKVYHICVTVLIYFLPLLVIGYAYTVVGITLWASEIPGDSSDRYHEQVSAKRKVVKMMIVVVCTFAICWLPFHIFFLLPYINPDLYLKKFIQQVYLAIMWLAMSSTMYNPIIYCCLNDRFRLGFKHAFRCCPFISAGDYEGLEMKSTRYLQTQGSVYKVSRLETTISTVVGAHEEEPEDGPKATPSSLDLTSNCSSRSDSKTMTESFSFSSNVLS", "experiment": "Selectivity assay: [3H] substance P binding, human NK-1", "details": "2 nM [3H] substance P, CHO membranes; read-out: hNK-1 (Ki)", "description": "Selectivity of the compounds of the invention was determined over the other human NK receptors, namely NK-1 and NK-2 receptors.\nThe affinity of compounds of the invention for the NK-1 receptor was evaluated in CHO recombinant cells which express the human NK-1 receptor. Membrane suspensions were prepared from these cells. The following radioligand: [^3H] substance P (PerkinElmer Cat#NET111520) was used in this assay. Binding assays were performed in a 50 mM Tris/5 mM MnCl2/150 mM NaCl/0.1% BSA at pH 7.4. Binding assays consisted of 25 μl of membrane suspension (approximately 5 μg of protein/well in a 96 well plate), 50 μl of compound or reference ligand (Substance P) at increasing concentrations (diluted in assay buffer) and 2 nM [^3H] substance P. The plate was incubated 60 min at 25° C. in a water bath and then filtered over GF/C filters (Perkin Elmer, 6005174, presoaked in 0.5% PEI for 2 h at room temperature) with a Filtration unit (Perkin Elmer). The radioactivity retained on the filters was measured by using the TopCount-NXT reader (Packard)."}, "plasma protein": {"system": "plasma protein", "experiment": "Determination of plasma protein binding (equilibrium dialysis)", "format": "in vitro ADME", "details": "4 hours at 37° C.", "description": "Determination of Plasma Protein Binding\nThe pharmacokinetic and pharmacodynamic properties of chemicals/drugs are largely a function of the reversible binding of chemicals to plasma or serum proteins. […] Consequently, the extent of the plasma protein binding (PPB) of a compound influences its action as well as its distribution and elimination.\nThe determination of plasma protein binding (PPB) of a compound is enabled by equilibrium dialysis, an accepted and standard method for reliable estimation of the non-bound drug fraction in plasma. RED (Rapid Equilibrium Dialysis) device insert is made of two side-by-side chambers separated by an O-ring-sealed vertical cylinder of dialysis membrane (MWCO˜8,000). […] After 4 hours incubation at 37° C. under shaking, an aliquot is removed from each chamber and analyzed by a LC-MS/MS procedure enables the determination of both free and bound drug.\nThe “free fraction” may be calculated as 100%-% rPPB (i.e. the complementary percentage of that disclosed in Table 4, corresponding to the drug concentration that is unbound and therefore available to engage biological target and elicit pharmacological activity)."}, "human NK-2 receptor": {"biological_target": "human NK-2 receptor (Homo sapiens (Human), UniProt P21452)", "sequence (P21452 whole entry)": "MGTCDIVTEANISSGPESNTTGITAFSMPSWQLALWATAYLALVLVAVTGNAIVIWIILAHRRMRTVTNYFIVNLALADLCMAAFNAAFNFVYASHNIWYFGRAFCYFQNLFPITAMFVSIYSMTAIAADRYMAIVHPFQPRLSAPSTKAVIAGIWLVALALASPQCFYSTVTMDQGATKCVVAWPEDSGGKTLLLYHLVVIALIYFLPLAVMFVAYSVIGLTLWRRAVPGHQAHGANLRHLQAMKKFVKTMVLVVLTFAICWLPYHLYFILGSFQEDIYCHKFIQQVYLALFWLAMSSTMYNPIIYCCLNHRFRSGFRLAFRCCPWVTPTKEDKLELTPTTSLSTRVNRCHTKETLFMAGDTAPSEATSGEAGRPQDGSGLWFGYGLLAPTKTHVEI", "experiment": "Selectivity assay: [125I]-Neurokinin A binding, human NK-2", "details": "0.1 nM [125I]-Neurokinin A, CHO membranes; read-out: hNK-2 (Ki)", "description": "The affinity of compounds of the invention for the NK-2 receptor was evaluated in CHO recombinant cells which express the human NK-2 receptor. Membrane suspensions were prepared from these cells. […] Binding assays were performed in a 25 mM HEPES/1 mM CaCl2/5 mM MgCl2/0.5% BSA/10 μg/ml saponin, at pH 7.4. […] The radioactivity retained on the filters was measured by using the TopCount-NXT reader (Packard)."}, "human NK-3 receptor [1]": {"biological_target": "T1, human NK-3 receptor (Homo sapiens (Human), UniProt P29371)", "T1 sequence (P29371 whole entry)": "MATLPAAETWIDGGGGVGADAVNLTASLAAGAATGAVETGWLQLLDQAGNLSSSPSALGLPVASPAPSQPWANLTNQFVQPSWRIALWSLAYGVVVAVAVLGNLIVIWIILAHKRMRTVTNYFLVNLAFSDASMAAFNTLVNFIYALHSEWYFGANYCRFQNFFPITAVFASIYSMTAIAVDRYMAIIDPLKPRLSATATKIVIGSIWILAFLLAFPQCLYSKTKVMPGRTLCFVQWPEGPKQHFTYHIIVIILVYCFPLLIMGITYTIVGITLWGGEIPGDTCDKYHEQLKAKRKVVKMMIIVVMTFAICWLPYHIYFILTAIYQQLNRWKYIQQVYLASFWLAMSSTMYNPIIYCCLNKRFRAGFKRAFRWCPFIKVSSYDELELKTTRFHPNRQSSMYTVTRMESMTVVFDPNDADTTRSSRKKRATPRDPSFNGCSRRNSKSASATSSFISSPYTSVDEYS", "experiment": "Aequorin functional assay with human NK-3 receptor (antagonist testing)", "format": "cell-based", "details": "read-out: Functional assay: Aequorin assay with human NK-3 receptor hNK-3 - AEQ (antagonist IC50)", "description": "Aequorin Assay with Human NK-3 Receptor\nChanges in intracellular calcium levels are a recognized indicator of G protein-coupled receptor activity. The efficacy of compounds of the invention to inhibit NKA-mediated NK-3 receptor activation was assessed by an in vitro Aequorin functional assay. Chinese Hamster Ovary recombinant cells expressing the human NK-3 receptor and a construct that encodes the photoprotein apoaequorin were used for this assay. In the presence of the cofactor coelenterazine, apoaequorin emits a measurable luminescence that is proportional to the amount of intracellular (cytoplasmic) free calcium.\nThe antagonist activity of compounds of the invention is measured following pre-incubation (3 minutes) of the compound (at various concentrations) with the cells, followed by addition of the reference agonist (NKA) at a final concentration equivalent to the EC80 (3 nM) and recording of emitted light (FDSS 6000 Hamamatsu) over the subsequent 90-second period. The intensity of the emitted light is integrated using the reader software. Compound antagonist activity is measured based on the concentration-dependent inhibition of the luminescence response to the addition of Neurokinin A."}, "hERG channel": {"biological_target": "hERG channel (Homo sapiens (Human), UniProt Q12809)", "sequence (Q12809 whole entry)": "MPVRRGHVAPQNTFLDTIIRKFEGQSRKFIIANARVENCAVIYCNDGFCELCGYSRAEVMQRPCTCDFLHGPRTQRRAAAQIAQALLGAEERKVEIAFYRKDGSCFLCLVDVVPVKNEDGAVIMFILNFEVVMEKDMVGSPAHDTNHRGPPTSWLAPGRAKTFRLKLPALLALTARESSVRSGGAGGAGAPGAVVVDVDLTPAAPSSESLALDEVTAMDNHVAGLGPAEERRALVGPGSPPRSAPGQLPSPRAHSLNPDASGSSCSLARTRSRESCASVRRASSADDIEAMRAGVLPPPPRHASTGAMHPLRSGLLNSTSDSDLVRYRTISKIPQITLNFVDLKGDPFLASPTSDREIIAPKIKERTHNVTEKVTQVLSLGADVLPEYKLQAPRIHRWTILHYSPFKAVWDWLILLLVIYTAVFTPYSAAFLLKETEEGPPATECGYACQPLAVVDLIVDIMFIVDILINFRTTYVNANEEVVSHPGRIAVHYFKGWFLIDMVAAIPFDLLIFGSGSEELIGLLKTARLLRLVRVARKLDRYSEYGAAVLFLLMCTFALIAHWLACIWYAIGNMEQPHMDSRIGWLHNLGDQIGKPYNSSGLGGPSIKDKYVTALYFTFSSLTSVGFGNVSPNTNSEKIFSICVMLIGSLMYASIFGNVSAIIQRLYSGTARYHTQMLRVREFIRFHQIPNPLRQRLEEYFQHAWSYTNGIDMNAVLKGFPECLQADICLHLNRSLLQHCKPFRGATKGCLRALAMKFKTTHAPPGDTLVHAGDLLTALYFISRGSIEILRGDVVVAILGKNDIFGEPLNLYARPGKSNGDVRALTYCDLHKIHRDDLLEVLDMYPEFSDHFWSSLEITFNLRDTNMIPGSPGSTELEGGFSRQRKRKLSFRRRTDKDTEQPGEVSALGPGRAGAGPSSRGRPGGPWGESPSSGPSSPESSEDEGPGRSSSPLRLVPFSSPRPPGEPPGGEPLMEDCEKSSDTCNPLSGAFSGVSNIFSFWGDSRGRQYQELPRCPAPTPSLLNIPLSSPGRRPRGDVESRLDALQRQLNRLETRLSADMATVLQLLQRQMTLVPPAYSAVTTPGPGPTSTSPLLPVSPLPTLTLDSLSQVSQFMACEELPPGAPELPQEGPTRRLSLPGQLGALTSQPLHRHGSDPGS", "experiment": "hERG inhibition assay (manual patch-clamp, HEK 293 cells)", "format": "cell-based", "details": "5 minutes of exposure, read-out: CardioSafety (hERG IC50)", "description": "The human ether-a-go-go related gene (hERG) encodes the inward rectifying voltage gated potassium channel in the heart (IKr) which is involved in cardiac repolarisation. […] IKr current inhibition accounts for the vast majority of known cases of drug-induced QT-prolongation.\nWhole-cell currents (acquisition by manual patch-clamp) elicited during a voltage pulse were recorded in baseline conditions and following application of tested compounds (5 minutes of exposure). The concentrations of tested compounds (0.3 μM; 3 μM; 10 μM; 30 μM) reflect a range believed to exceed the concentrations at expected efficacy doses in preclinical models.\nThe current density recorded were normalized against the baseline conditions and corrected for solvent effect and time-dependent current run-down using experimental design in test compound free conditions."}, "human NK-3 receptor [2]": {"biological_target": "T1, human NK-3 receptor", "experiment": "3H-SB222200 binding competition assay with human NK-3 receptor", "details": "read-out: hNK-3 (Ki)", "description": "The affinity of compounds of the invention for the human NK-3 receptor was determined by measuring the ability of compounds of the invention to competitively and reversibly displace a well-characterized NK-3 radioligand in a concentration-dependent manner.\n^3H-SB222200 Binding Competition Assay with Human NK-3 Receptor\nMembranes were prepared from Chinese hamster ovary recombinant cells stably expressing the human NK-3 receptor. The membranes were incubated with 5 nM ^3H-SB222200 (ARC) in a HEPES 25 mM/NaCl 0.1M/CaCl2 1 mM/MgCl2 5 mM/BSA 0.5%/Saponin 10 μg/ml buffer at pH 7.4 and various concentrations of compounds of the invention. The amount of ^3H-SB222200 bound to the receptor was determined after filtration by the quantification of membrane associated radioactivity using the TopCount-NXT reader (Packard)."}}}
{"smiles": "COc1cccc(C(=O)N2CCn3c(-c4nc(C)ns4)nnc3[C@H]2C)c1", "note": "[Compound 27, (R)-(3-methoxyphenyl)(8-methyl-3-(3-methyl-1,2,4-thiadiazol-5-yl)-5,6-dihydro-[1,2,4]triazolo[4,3-a]pyrazin-7(8H)-yl)methanone]", "values": [{"measurement": "Ki", "setting": "human NK-1 receptor", "value": "> 30000", "unit": "nM"}, {"measurement": "Exposure (% rPPB), bound drug fraction to the plasma protein", "setting": "plasma protein", "value": 24, "unit": "%"}, {"measurement": "Ki", "setting": "human NK-2 receptor", "value": "> 30000", "unit": "nM"}, {"measurement": "IC50", "setting": "human NK-3 receptor [1]", "value": 220, "unit": "nM"}, {"measurement": "IC50", "setting": "hERG channel", "value": "≥ 70000", "unit": "nM"}, {"measurement": "Ki", "setting": "human NK-3 receptor [2]", "value": 100, "unit": "nM"}]}
